Assays:
HER2 = target: T1, HER2 (Homo sapiens, UniProt P04626); assay: Inhibition of HER2 phosphorylation in Calu3 tumor cell line; format: cell-based; details: Calu3 cells; for percentage of inhibition of phosphorylation compared with the reference compound: 1 μM compound, versus Example 4, p. 88, WO 01/77107; for inhibition at 1 µM: Calu-3, read-out: Percent inhibition of HER2-phosphorylation
T1 construct: endogenous in cells; host or cells: Calu3 tumor cell line
Method: Inhibition of HER2 phosphorylation in Calu3 tumor cell line.
2×10^5 Calu3 cells per well were plated in a 12-well plate. After 4 days cells were starved for 16 h in DMEM(Dulbecco's Modified Eagle Medium)/0.5% FCS/1% Glutamine. During this time cells were incubated with 1 μM of a compound according to the present invention. Afterwards cells were lysed in lyses buffer containing 1% Triton, 10% Glycerol, 1 mM EGTA, 1.5 mM MgCl2, 150 mM NaCl, 50 mM Hepes pH 7.5, 1 mM PMSF, 10 μg/mL Aprotinin and […] Orthovanadate. Cell lysates were analyzed on a SDS PAGE and after transfer to a nitrocellulose membrane detected with a rabbit antibody specifically recognizing the pY 1248 in HER2 (Cell Signaling). After incubation with an anti rabbit antibody coupled to POD (Biorad) (Peroxidase available from Biorad, Munich, Germany) signals were detected by chemiluminescence (ECL,Amersham). Inhibition of HER2 phosphorylation is calculated as percentage of the DMSO treated control. This percentage is calculated according to the following formula: Inhibition in %=100-(Phosphorylated-HER2-Signal of Test Sample* 100/Phosphorylated-HER2-Signal DMSO-control).

[1] = compound concentration 1 μM, 16 h, pY 1248 in HER2, percentage of the DMSO treated control

T1 sequence (P04626 23-1255): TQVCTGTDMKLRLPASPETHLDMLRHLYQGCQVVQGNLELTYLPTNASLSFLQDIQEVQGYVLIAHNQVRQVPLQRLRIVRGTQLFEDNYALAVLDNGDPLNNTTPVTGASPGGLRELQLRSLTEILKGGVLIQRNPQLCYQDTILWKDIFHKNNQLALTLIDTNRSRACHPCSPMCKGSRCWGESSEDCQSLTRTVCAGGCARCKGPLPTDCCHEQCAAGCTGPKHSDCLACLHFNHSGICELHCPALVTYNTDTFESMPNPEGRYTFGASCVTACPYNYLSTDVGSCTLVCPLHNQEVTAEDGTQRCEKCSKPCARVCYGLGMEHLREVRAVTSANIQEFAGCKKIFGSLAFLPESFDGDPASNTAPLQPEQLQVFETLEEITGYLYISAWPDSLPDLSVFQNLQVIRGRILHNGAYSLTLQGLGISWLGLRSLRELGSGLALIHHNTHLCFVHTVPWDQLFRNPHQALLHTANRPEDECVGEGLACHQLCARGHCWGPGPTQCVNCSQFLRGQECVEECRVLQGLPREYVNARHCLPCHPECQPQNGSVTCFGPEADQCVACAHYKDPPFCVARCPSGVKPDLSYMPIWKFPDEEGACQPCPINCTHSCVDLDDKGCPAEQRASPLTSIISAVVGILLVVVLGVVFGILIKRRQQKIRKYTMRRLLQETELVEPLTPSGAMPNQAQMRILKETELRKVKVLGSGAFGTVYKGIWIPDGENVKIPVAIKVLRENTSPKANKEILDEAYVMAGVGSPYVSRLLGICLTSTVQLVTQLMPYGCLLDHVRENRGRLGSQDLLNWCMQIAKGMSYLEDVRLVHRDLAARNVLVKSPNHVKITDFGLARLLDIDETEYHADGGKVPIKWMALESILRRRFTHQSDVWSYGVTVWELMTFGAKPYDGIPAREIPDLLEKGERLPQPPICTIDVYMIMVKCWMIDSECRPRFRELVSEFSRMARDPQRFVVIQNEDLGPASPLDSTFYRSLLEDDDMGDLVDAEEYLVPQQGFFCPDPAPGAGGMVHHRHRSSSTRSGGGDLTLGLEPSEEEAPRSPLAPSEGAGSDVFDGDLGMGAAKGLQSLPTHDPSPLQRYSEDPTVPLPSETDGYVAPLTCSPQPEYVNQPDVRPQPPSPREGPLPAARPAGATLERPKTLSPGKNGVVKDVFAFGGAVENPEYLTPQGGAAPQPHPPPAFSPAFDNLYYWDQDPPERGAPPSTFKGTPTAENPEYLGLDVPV

Row | melting point [°C] | inhibition at 1 µM (HER2; [1]) [%] | SMILES | percentage of inhibition of phosphorylation compared with the reference compound (HER2) | Percent inhibition of HER2-phosphorylation (HER2; [1]) [%]
1 | – | 52.9 | [O-][S+](c1ccc(/C=C/c2nc(COc3ccc(CCCCc4nn[nH]n4)cc3)co2)cc1)C(F)(F)F (stereo not shown) [example 7, 5-[4-(4-{2-[(E)-2-(-4-Trifluoromethanesulfinyl-phenyl)-vinyl]-oxazol-4-ylmethoxy}-phenyl)-butyl]-2H-tetrazole] | higher percentage of inhibition of phosphorylation | –
2 | 122 to 123 | 94.4 | [O-][S+](c1ccc(/C=C/c2nc(COc3ccc(CCCCn4ccnn4)cc3)co2)cc1)C(F)(F)F (stereo not shown) [example 4, 1-[4-(4-{2-[(E)-2-(-4-Trifluoromethanesulfinyl-phenyl)-vinyl]-oxazol-4-ylmethoxy}-phenyl)-butyl]-1H-[1,2,3]triazole] | higher percentage of inhibition of phosphorylation | –

The remaining lines, values behind:

Row | SMILES | melting point [°C] | inhibition at 1 µM (HER2; [1]) [%] | percentage of inhibition of phosphorylation compared with the reference compound (HER2) | Percent inhibition of HER2-phosphorylation (HER2; [1]) [%]
3 | O=S(=O)(c1ccc(/C=C/c2nc(COc3ccc(CCCCn4ccnn4)cc3)co2)cc1)C(F)(F)F [example 5, 1-[4-(4-{2-[(E)-2-(-4-Trifluoromethanesulfonyl-phenyl)-vinyl]-oxazol-4-ylmethoxy}-phenyl)-butyl]-1H-[1,2,3]triazole] | 133 to 135 | 82.9 | higher percentage of inhibition of phosphorylation | –
4 | [O-][S+](c1ccc(/C=C/c2nc(COc3ccc(CCCCn4ccnn4)cc3)cs2)cc1)C(F)(F)F (stereo not shown) [example 15, 1-[4-(4-{2-[(E)-2-(4-Trifluoromethanesulfinyl-phenyl)-vinyl]-thiazol-4-ylmethoxy}-phenyl)-butyl]-1H-[1,2,3]triazole] | 118 to 119 | 73.6 | higher percentage of inhibition of phosphorylation | –
5 | [O-][S+](c1ccc(C=Cc2nc(COc3ccc(CCCCn4ccnc4)cc3)co2)cc1)C(F)(F)F (stereo not shown) [example 1, 4-[4-(4-Imidazol-1-yl-butyl)-phenoxymethyl]-2′-[2-(4-trifluoromethanesulfinyl-phenyl)-vinyl]-oxozole] | – | – | higher percentage of inhibition of phosphorylation | 92.5
6 | O=S(=O)(NCCn1ccnn1)c1ccc(OCc2coc(C=Cc3ccc([S+]([O-])C(F)(F)F)cc3)n2)cc1 (stereo not shown) [Example 13, N-(2-[1,2,3] Triazol-1-yl-ethyl)-4-{2-[2-(4-trifluoromethanesulfinyl-phenyl)-vinyl]-oxazol-4-ylmethoxy}-benzenesulfonamide] | 172 to 174 | – | – | –
7 | Cc1cc(OCc2coc(C=Cc3ccc(S(=O)(=O)C(F)(F)F)cc3)n2)ccc1CCCCn1ccnn1 [Example 20, 1-[4-(2-Methyl-4-{2-[2-(4-trifluoromethanesulfonyl-phenyl)-vinyl]-oxazol-4-ylmethoxy}-phenyl)-butyl]-1H-[1,2,3]triazole] | 140 to 142 | – | – | –
8 | [O-][S+](c1ccc(/C=C/c2nc(COc3ccc(CNCCn4ccnn4)cc3)co2)cc1)C(F)(F)F (stereo not shown) [Example 3, (2-[1,2,3]Triazol-1-yl-ethyl)-(4-{2-[(E)-2-(4-trifluoromethanesulfinyl-phenyl)-vinyl]-oxazol-4-ylmethoxy}-benzyl)-amine] | 111 to 113 | – | – | –

— patent publication US7405231B2, “Oxidized thioether derivatives” (Hoffmann-La Roche Inc., priority 2004, dated 2008)
